According to BindingDB's records for doi:10.1021/cb300671s (National Cancer Institute-Bethesda, 2013):

Tests used:
[1] = molecular target: Protein kinase C beta type (Homo sapiens, UniProt P05771)
[2] = molecular target: T1, Protein kinase C epsilon type (Homo sapiens, UniProt Q02156)
T1 sequence (Q02156 whole entry): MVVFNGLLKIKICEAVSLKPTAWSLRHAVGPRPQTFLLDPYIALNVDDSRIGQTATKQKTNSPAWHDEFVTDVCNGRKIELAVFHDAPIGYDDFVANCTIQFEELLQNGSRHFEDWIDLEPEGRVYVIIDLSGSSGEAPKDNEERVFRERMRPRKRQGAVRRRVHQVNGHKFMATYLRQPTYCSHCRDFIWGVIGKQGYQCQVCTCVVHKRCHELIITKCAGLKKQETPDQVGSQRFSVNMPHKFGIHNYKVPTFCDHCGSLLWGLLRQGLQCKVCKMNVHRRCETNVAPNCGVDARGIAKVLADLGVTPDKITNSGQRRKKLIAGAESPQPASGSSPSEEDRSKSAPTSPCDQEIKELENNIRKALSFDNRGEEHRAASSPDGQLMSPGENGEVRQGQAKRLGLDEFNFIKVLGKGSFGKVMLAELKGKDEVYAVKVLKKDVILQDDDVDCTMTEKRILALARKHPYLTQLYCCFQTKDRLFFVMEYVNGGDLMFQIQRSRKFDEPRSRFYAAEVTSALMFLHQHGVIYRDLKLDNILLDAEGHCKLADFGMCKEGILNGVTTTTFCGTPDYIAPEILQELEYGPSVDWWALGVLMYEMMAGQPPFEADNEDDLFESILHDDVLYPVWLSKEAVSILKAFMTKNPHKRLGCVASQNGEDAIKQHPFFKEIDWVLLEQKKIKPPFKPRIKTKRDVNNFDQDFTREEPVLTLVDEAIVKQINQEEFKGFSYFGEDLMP

Protein kinase C = Protein kinase C (Mus musculus, UniProt Q4VA93)
[3] = molecular target: Protein kinase C delta type (Homo sapiens, UniProt Q05655)
Protein kinase C delta type, sequence (Q05655 whole entry): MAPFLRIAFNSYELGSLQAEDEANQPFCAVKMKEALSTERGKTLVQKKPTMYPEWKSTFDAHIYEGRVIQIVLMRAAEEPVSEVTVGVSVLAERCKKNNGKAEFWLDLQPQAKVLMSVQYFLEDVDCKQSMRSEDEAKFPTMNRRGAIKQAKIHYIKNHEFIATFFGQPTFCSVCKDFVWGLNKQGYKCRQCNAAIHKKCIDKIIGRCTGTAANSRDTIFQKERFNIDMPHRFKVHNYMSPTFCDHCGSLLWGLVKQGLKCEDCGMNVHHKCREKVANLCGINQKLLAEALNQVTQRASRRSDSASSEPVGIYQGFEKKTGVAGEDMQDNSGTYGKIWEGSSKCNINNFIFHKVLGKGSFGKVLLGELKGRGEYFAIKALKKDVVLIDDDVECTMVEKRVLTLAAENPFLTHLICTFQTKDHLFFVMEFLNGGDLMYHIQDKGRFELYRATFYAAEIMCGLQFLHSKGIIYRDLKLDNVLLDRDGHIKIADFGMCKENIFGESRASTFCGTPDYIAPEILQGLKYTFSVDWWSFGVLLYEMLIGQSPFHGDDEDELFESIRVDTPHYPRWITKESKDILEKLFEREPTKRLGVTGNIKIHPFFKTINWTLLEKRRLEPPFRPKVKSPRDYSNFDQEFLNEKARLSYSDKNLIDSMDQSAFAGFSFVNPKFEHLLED

[4] = molecular target: Protein kinase C alpha type (Homo sapiens, UniProt P17252)

Protein kinase C beta type, sequence (P05771 whole entry): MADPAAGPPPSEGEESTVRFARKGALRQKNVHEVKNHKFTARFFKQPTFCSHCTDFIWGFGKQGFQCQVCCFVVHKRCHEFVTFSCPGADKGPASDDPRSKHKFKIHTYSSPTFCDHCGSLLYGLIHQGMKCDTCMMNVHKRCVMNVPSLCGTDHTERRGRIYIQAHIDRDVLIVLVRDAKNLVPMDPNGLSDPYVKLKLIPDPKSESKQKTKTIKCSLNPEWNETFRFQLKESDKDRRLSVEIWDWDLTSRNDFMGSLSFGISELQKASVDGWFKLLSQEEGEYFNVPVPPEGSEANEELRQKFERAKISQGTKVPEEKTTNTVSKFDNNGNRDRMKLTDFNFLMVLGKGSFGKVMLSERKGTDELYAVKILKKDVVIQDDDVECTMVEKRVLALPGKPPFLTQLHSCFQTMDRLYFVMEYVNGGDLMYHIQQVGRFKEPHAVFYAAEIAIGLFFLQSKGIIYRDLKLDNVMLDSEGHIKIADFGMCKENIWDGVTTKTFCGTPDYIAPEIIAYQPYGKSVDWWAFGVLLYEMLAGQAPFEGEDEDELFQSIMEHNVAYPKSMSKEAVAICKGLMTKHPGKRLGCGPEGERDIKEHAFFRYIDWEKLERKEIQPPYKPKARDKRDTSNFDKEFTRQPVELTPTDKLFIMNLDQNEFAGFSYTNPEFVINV

Compound	Kd [1]	Kd [2]	Kd (Protein kinase C)	Kd [3]	Kd [4]
COC(=O)/C=C1/C[C@H]2C[C@]3(O)O[C@H](C[C@@H](O)CC(=O)O[C@@H]([C@@H](C)O)C[C@@H]4C/C(=C\C(=O)OC)[C@H](OC(C)=O)[C@@](O)(O4)C(C)(C)/C=C/[C@@H](C1)O2)C[C@H](OC(C)=O)C3(C)C [Bryostatin]	320 pM	160 pM	260 pM	210 pM	440 pM
CCCC(=O)O[C@@H]1[C@@H](C)[C@@]2(O)[C@@H](C=C(CO)C[C@@]3(O)C(=O)C(C)=C[C@@H]23)[C@H]2C(C)(C)[C@]12OC(=O)CCC [Butyric acid (1aS,1bS,4aS,7aS,8R,9S,9aR)-9-butyryloxy-4a,7b-dihydroxy-3-((R)-hydroxymethyl)-1,1,6,8-tetramethyl-5-oxo-1,1a,1b,4,4a,5,7a,7b,8,9-decahydro-cyclopropa[3,4]benzo[1,2-e]azulen-9a-yl ester]			300 pM		
CCC/C=C/C=C/C(=O)O[C@H]1/C(=C/C(=O)OC)C[C@H]2C[C@H]([C@@H](C)O)OC(=O)C[C@H](O)C[C@@H]3C[C@H](OC(C)=O)C(C)(C)[C@](O)(C[C@@H]4C/C(=C/C(=O)OC)C[C@H](/C=C/C(C)(C)[C@]1(O)O2)O4)O3	420 pM	240 pM	480 pM		730 pM
